How the values were obtained:
Format in all cases: cell-based
[1] = system: primary human total T-cells; experiment: T-cell activation assessed by CD69 expression
Procedure, shortened: (§1)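 Readouts are fold change versus compound-free cells under the same stimulation: plate-bound anti-CD3 (OKT3, 10 μg/mL coating) alone or with soluble anti-CD28 at 5 μg/mL, for 48 h. Isolated human total T cells (1×10^5/well) got inhibitor 1 h beforehand at concentrations such as 10, 1.11 or 0.123 μM. Measured: GM-CSF/IFNγ/TNFα secretion, surface CD69, proliferation by dye dilution.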

[2] = system: primary human total T-cells; experiment: T-cell activation assessed by cell proliferation (Cell Trace Violet)
Procedure, shortened: as §1

T-cell [3] = experiment: IL-2 secretion from T-cells stimulated with anti-CD3 antibody alone (Biological Example 2); details: primary human total T-cells, read-out: IL-2 secretion, Anti-CD3 stimulation, fold change over baseline; for fold induction at 1 µM: 1 μM compound; for fold induction at 8 µM: 8 μM compound
T-cell [4] = experiment: CD25 cell surface staining on T-cells stimulated with anti-CD3 antibody alone (Biological Example 2); details: primary human total T-cells, baseline = anti-CD3/anti-CD28 stimulated cells without inhibitor, read-out: CD25 staining, Anti-CD3 stimulation, fold change over baseline; for fold induction at 1 µM: 1 μM compound; for fold induction at 8 µM: 8 μM compound
[5] = CD3/CD28 stimulation, CD4 T-cells, read-out: % CD69+ (CD4)
[6] = CD3/CD28 stimulation, CD8 T-cells, read-out: % CD69+ (CD8)
[7] = CD3 alone stimulation, CD4 T-cells, read-out: % CD69+ (CD4)
[8] = CD3 alone stimulation, CD8 T-cells, read-out: % CD69+ (CD8)
[9] = CD3/CD28 stimulation, CD4 T-cells, read-out: % CP (cell proliferation) (CD4)
[10] = CD3/CD28 stimulation, CD8 T-cells, read-out: % CP (cell proliferation) (CD8)
[11] = CD3 alone stimulation, CD8 T-cells, read-out: % CP (cell proliferation) (CD8)

| Compound | fold induction at 1.11 µM [1, 5] | fold induction at 10 µM [1, 5] | fold induction at 1.11 µM [1, 6] | fold induction at 10 µM [1, 6] | fold induction at 1.11 µM [1, 7] | fold induction at 10 µM [1, 7] | fold induction at 1.11 µM [1, 8] | fold induction at 10 µM [1, 8] | fold induction at 1.11 µM [2, 9] | fold induction at 10 µM [2, 9] | fold induction at 1.11 µM [2, 10] | fold induction at 10 µM [2, 10] | fold induction at 1.11 µM [2, 11] | fold induction at 10 µM [2, 11] | fold induction at 1 µM (T-cell [3]) | fold induction at 8 µM (T-cell [3]) | fold induction at 1 µM (T-cell [4]) | fold induction at 8 µM (T-cell [4]) |
| --- | --- | --- | --- | --- | --- | --- | --- | --- | --- | --- | --- | --- | --- | --- | --- | --- | --- | --- |
| C[C@H](Cc1nncn1C)c1cccc(NC(=O)c2nc(C(F)(F)F)c[nH]2)c1 [Compound 326, (R)-N-(3-(1-(4-methyl-4H-1,2,4-triazol-3-yl)propan-2-yl)phenyl)-4-(trifluoromethyl)-1H-imidazole-2-carboxamide] | 1.2 to 1.4 | 1.4 to 1.6 | ≤ 1.2 | 1.2 to 1.4 | 1.2 to 1.4 | 1.4 to 1.6 | ≤ 1.2 | 1.2 to 1.4 | 2.01 to 3 | > 4 | 2.01 to 3 | 3.01 to 4 | 2.01 to 3 | > 4 | – | – | – | – |
| Cn1cnnc1[C@@H]1C[C@@H]1c1cccc(N2Cc3c(ccnc3C(F)(F)F)C2=O)c1 [Compound 369, 2-{3-[(1S,2R)-2-(4-methyl-4H-1,2,4-triazol-3-yl)cyclopropyl]phenyl}-4-(trifluoromethyl)-1H,2H,3H-pyrrolo[3,4-c]pyridin-1-one] | ≤ 1.2 | 1.4 to 1.6 | ≤ 1.2 | 1.2 to 1.4 | ≤ 1.2 | ≤ 1.2 | ≤ 1.2 | ≤ 1.2 | < 2 | > 4 | < 2 | 2.01 to 3 | < 2 | < 2 | 0.051 to 0.1 | 0.101 to 0.15 | 0.601 to 0.8 | 0.801 to 1 |
| Cc1cc2c(c(C3CC3)n1)CN(c1cccc([C@H](C)Cc3nncn3C)c1)C2=O [Compound 372, 4-cyclopropyl-6-methyl-2-{3-[(2R)-1-(4-methyl-4H-1,2,4-triazol-3-yl)propan-2-yl]phenyl}-1H,2H,3H-pyrrolo[3,4-c]pyridin-1-one] | ≤ 1.2 | 1.2 to 1.4 | ≤ 1.2 | 1.2 to 1.4 | ≤ 1.2 | 1.2 to 1.4 | ≤ 1.2 | 1.2 to 1.4 | < 2 | > 4 | < 2 | 2.01 to 3 | < 2 | 2.01 to 3 | 0.051 to 0.1 | 0.101 to 0.15 | 0.601 to 0.8 | 0.801 to 1 |
| CNCc1ccc(C(=O)Nc2cccc([C@H](C)Cc3nncn3C)c2)nc1C1CC1 [Compound 376, (R)-6-cyclopropyl-N-(3-(1-(4-methyl-4H-1,2,4-triazol-3-yl)propan-2-yl)phenyl)-5-((methylamino)methyl)picolinamide] | 1.4 to 1.6 | > 1.6 | 1.2 to 1.4 | 1.2 to 1.4 | > 1.6 | > 1.6 | 1.2 to 1.4 | 1.4 to 1.6 | > 4 | > 4 | 3.01 to 4 | > 4 | > 4 | > 4 | 0.101 to 0.15 | > 0.201 | 0.801 to 1 | > 1 |
